≈ marks a conversion by molar mass, not a printed value. Entries after “also recorded” stand apart in the source; their conditions may differ.
Key:
Format in all cases: physicochemical
[1] = Thermal behaviour (DSC and TGA); details: heating rate 5 K/min
Method: (§1) The DSC scan of Form A1 was acquired on a Mettler-Toledo DSC 821 with a heating rate of 5 K/min, using nitrogen purge gas at 50 mL/min. […] Form A1 can be classified as non-hygroscopic according to Ph. Eur. Criteria (section 5.11.).
The DSC scan of Form A2 was acquired on a Mettler-Toledo DSC 821 with a heating rate of 5 K/min, using nitrogen purge gas at 50 mL/min. […] Eur. Criteria (section 5.11.).
DSC scan of Form B1 was acquired on a Mettler-Toledo DSC 821 with a heating rate of 5 K/min, using nitrogen purge gas at 50 mL/min. […] Eur. criteria.
(§2) Eur. criteria. […] Water Vapour Sorption isotherm was acquired on a DVS-1 System from SMS. • Solubility in USP phosphate buffer (pH 7.4) at 37° C. was determined to be approx. 70 μg/mL (see Example 7).

[2] = Water Vapour Sorption isotherm (25° C.), DVS-1 System; details: for water uptake at elevated RH: above 80% RH
Method: as §1
The DSC scan of Form A2 was acquired on a Mettler-Toledo DSC 821 with a heating rate of 5 K/min, using nitrogen purge gas at 50 mL/min. […] Eur. Criteria (section 5.11.). […]
as §2

[3] = Thermodynamic solubility of Forms B1 and B2 in USP Phosphate Buffer (pH 7.4); details: for Solid-state Residue (X-Ray-Diffraction): #1 + #2
Method: Approximately 17 mg of Compound C (free base) crystalline form B1 were dispersed in 2 mL USP Phosphate Buffer (pH 7.4) in Whatman Uniprep Syringless Filter vials in duplicate preparations.
Approximately 17 mg of Compound C (free base) crystalline form B2 were dispersed in 2 mL USP Phosphate Buffer (pH 7.4) in Whatman Uniprep Syringless Filter vials in duplicate preparations.
(§3) All dispersions were agitated at 37° C. for 24 hours. Dispersions were then filtered via the internal filter of the Uniprep vials, and clear filtrates were analysed by HPLC for dissolved quantities of Compound C.
(§4) Solid state residues were analysed by X-Ray-Diffraction for identity with the initially used materials.

[4] = Solubility determinations of HCl salt forms vs. free base (DI water, 0.1 N HCl); details: for Solid-state Residue (X-Ray-Diffraction) / Solubility: 37° C., 24 hours
Method: as §3, §4

[5] = Solvent-mediated competitive slurry conversion experiments with binary phase mixtures of Forms B1+B2; details: RT and 50° C.
Method: Approximately 10 mg of Compound C (free base) crystalline form B1 and approx. 5 mg of Compound C (free base) crystalline form B2 were dispersed in 200-1000 μL solvent in 4-mL glass vials. A PTFE-coated magnetic stirring bar was inserted into the dispersions, and the vials were tightly closed with a screw cap containing a septum. Dispersions were agitated for 5 days on a magnetic stirrer at ambient conditions (˜23° C.) and 50° C., respectively. Dispersions were then vacuum-filtrated over a Whatman paper filter, and collected filter residues were analysed by X-Ray-Diffraction for identity with the initially used materials.

[6] = API dissolution studies in Flow-Through-Cell system; details: for % dissolved levels after 30 minutes: flow rate 16 mL/min; for dissolution in various buffer systems: 37° C., pH range 1.2 to 6.8
Method: Approximately 10 mg of Forms A1, A2 or B1, respectively, were accurately weighed and blended with 2 g glass beads in a Vortex mixer. The blends were then placed into a powder cell of a Flow-Through-Cell system. Dissolution studies were performed at 37° C. over 30-60 minutes at a constant flow rate of 16 mL/min. Fractions of dissolution medium after passing the Flow-Through-Cell were collected in 1 minute intervals in the first 10 minutes, in 5 minute intervals from 10-30 minutes, and in 15 minute intervals from 30-60 minutes. Dissolved levels of API in each fraction were analysed by HPLC. In dissolution experiments with HCl salt forms at pH 5.0 and pH 6.8, free base fractions which precipitated over time from the initially clear solutions in the collected dissolution fractions were re-dissolved by addition of sulphuric acid prior to HPLC analysis. All experiments were performed as triplicate preparations, with results reported as mean values from triplicates, and error bars as single standard deviations from the triplicates.

[7] = relative humidity (RH) range 0-80% RH
[8] = USP phosphate buffer (pH 7.4), 37° C., 24 hours
[9] = 0.1N HCl, listed as Free Base Form B1
[10] = 0.1N HCl, listed as HCl salt Form A1
[11] = 0.1N HCl, listed as HCl salt Form A2

For `O=C(NC[C@H](O)CO)c1ccncc1Nc1ccc(I)cc1F` [Form B2, N—((S)-2,3-Dihydroxy-propyl)-3-(2-fluoro-4-iodo-phenylamino)-isonicotinamide], the thermal stability [1] was “sufficient”, the “hygroscopicity (classification acc. to Ph. Eur. criteria, section 5.11.)” value (“hygroscopicity” for short) [2] was “slightly hygroscopic” and the “water uptake at elevated RH” value [2] was “slightly enhanced”. The water uptake levels [2, 7] was ~1 wt %, the “supersaturated solubility level compared to form B1” value ([3]; PBS buffer pH 7.4, 37° C.) was “increased” and the “Solid-state Residue (X-Ray-Diffraction)” value [3, 8] was “Free Base Form B1”. The Solubility ([3]; USP phosphate buffer (pH 7.4), 37° C., 24 hours, duplicate preparations #1, #2) was “approx. 70 μg/mL”.

In the case of `O=C(NC[C@H](O)CO)c1ccncc1Nc1ccc(I)cc1F` [Form B1, N—((S)-2,3-Dihydroxy-propyl)-3-(2-fluoro-4-iodo-phenylamino)-isonicotinamide], the thermal stability [1] is reported as “sufficient”, the “Solid-state Residue (X-Ray-Diffraction)” value [4, 9] is reported as “HCI salt Form A1” and the Solubility [4, 9] is reported as 17500 µg/mL. The Solubility ([4]; DI Water, listed as Free Base Form B1) was <100 µg/mL, the “Solid-state Residue (X-Ray-Diffraction)” value ([4]; Water) was “Free base Form B1” and the “thermodynamic stability of free base forms B1 vs B2” value [5] was “thermodynamically more stable free base form; also recorded: thermodynamically stable”. The “thermodynamic stability of free base forms B1 vs B2” value ([5]; listed as form B1) was “more stable form”, the “% dissolved levels after 30 minutes” value ([6]; pH 1.2, 37° C., listed as Free base Form B1) was 100% and the “% dissolved levels after 30 minutes” value ([6]; pH 3.0, 37° C., listed as Free base Form B1) was 83%. The “% dissolved levels after 30 minutes” value ([6]; pH 5.0, 37° C., listed as Free base Form B1) was 57%, the “% dissolved levels after 30 minutes” value ([6]; pH 6.8, 37° C., listed as Free base Form B1) was 52% and the “hygroscopicity” value [2] was “slightly hygroscopic”. For the same compound, the “water uptake at elevated RH” value [2] was “slightly enhanced”, the water uptake levels [2, 7] was < 1 wt % and the “Solid-state Residue (X-Ray-Diffraction)” value [3, 8] was “Free Base Form B1”. It also gave a solubility at 24 h ([3]; USP phosphate buffer, 37 °C, pH 7.4, aqueous buffer, thermodynamic from solid, USP phosphate buffer (pH 7.4), 24 hours, duplicate preparations #1, #2) of ~50 µg/mL (≈ 116 µM).

In the case of `O=C(NC[C@H](O)CO)c1ccncc1Nc1ccc(I)cc1F` [Form A1, N—((S)-2,3-Dihydroxy-propyl)-3-(2-fluoro-4-iodo-phenylamino)-isonicotinamide], the thermal stability [1] is reported as “sufficient”, the “aqueous solubility compared to the free base” value [4] is reported as “significantly improved” and the “solubility as compared to forms B1 and B2” value [4] is reported as “higher”. The Solubility ([4]; 0.1N HCl) was “approx. 44 mg/mL”, the “Solid-state Residue (X-Ray-Diffraction)” value [4, 10] was “HCl salt Form A1” and the Solubility [4, 10] was 43600 µg/mL. The Solubility ([4]; DI Water) was “approx. 2.8 mg/mL”, the Solubility ([4]; DI Water, listed as HCl salt Form A1) was 2800 µg/mL and the “Solid-state Residue (X-Ray-Diffraction)” value ([4]; Water) was “Free base Form B1”. For the same compound, the “dissolution kinetics as compared to forms B1 and B2” value [6] was “faster”, the “dissolution in various buffer systems” value [6] was “rapid and complete dissolution” and the “% dissolved levels after 30 minutes” value ([6]; pH 1.2, 37° C., listed as HCl Salt Form A1) was 100%. The “% dissolved levels after 30 minutes” value ([6]; pH 3.0, 37° C., listed as HCl Salt Form A1) was 100%, the “% dissolved levels after 30 minutes” value ([6]; pH 5.0, 37° C., listed as HCl Salt Form A1) was 97% and the “% dissolved levels after 30 minutes” value ([6]; pH 6.8, 37° C., listed as HCl Salt Form A1) was 96%. For the same compound, the “hygroscopicity” value [2] was “non-hygroscopic; also recorded: slightly hygroscopic” and the water uptake levels ([2]; entire relative humidity range 0-98% RH) was < 0.1 wt %.

In the case of `O=C(NC[C@H](O)CO)c1ccncc1Nc1ccc(I)cc1F` [Form A2, N—((S)-2,3-Dihydroxy-propyl)-3-(2-fluoro-4-iodo-phenylamino)-isonicotinamide], the thermal stability [1] is reported as “sufficient”, the “aqueous solubility compared to the free base” value [4] is reported as “significantly improved” and the “solubility as compared to forms B1 and B2” value [4] is reported as “higher”. The Solubility ([4]; 0.1N HCl) was > 20000 µg/mL, the “Solid-state Residue (X-Ray-Diffraction)” value [4, 11] was “No residue obtained” and the Solubility [4, 11] was >20000 µg/mL. The Solubility ([4]; DI Water) was “approx. 2.5 mg/mL”, the Solubility ([4]; DI Water, listed as HCl salt Form A2) was 2500 µg/mL and the “Solid-state Residue (X-Ray-Diffraction)” value ([4]; Water) was “Free base Form B1”. The “dissolution kinetics as compared to forms B1 and B2” value [6] was “faster”, the “dissolution in various buffer systems” value [6] was “rapid and complete dissolution” and the “% dissolved levels after 30 minutes” value ([6]; pH 1.2, 37° C., listed as HCl Salt Form A2) was 99%. For the same compound, the “% dissolved levels after 30 minutes” value ([6]; pH 3.0, 37° C., listed as HCl Salt Form A2) was 100%, the “% dissolved levels after 30 minutes” value ([6]; pH 5.0, 37° C., listed as HCl Salt Form A2) was 98% and the “% dissolved levels after 30 minutes” value ([6]; pH 6.8, 37° C., listed as HCl Salt Form A2) was 96%. For the same compound, the “Water Vapour Sorption behaviour” value [2] was “small water uptake levels only” and the “hygroscopicity” value [2] was “slightly hygroscopic”.

From US9260393B2, “Solid state forms of N-((S)-2,3-dihydroxy-propyl)-3-(2-fluoro-4-iodo-phenylamino)-isonicotinamide” (Merck Patent GmbH, priority 2012, dated 2016)
